{
  "source": "ChEMBL document CHEMBL1133368",
  "about": "“Preparation of 5-(2,6-dideoxy-2-fluoro-alpha-L-talopyranosyloxy)-6-hydroxynap htho[2,3- f]quinoline-7,12-dione (FT-Alz), a new-type, potentially antitumor substance with various biological activities” (Bioorg Med Chem Lett, 2000)",
  "key": {"K562": {"test_system": "K562", "assay": "Growth inhibitory concentration of compound was measured against human leukemia cell line (K562)", "format": "functional, cell-based"}, "Melanoma cell line": {"test_system": "Melanoma cell line", "assay": "Growth inhibitory concentration of compound was measured against human melanoma cell line (HMV-1)", "format": "functional, cell-based"}, "MKN-1": {"test_system": "MKN-1", "assay": "Growth inhibitory concentration of compound was measured against human gastric adenocarcinoma cell line (MKN-1)", "format": "functional, cell-based"}, "L1210": {"test_system": "L1210", "assay": "Growth inhibitory concentration of compound was measured against murine leukemia cell line (L1210)", "format": "functional, cell-based", "details": "Mus musculus"}, "P388 [1]": {"test_system": "P388", "assay": "Growth inhibitory concentration of compound was measured against murine leukemia cell line (P388)", "format": "functional, cell-based", "details": "Mus musculus"}, "T-24": {"test_system": "T-24", "assay": "Growth inhibitory concentration of compound was measured against human bladder carcinoma cell line (T24)", "format": "functional, cell-based"}, "P388 [2]": {"test_system": "P388", "assay": "Growth inhibitory concentration of compound was measured against DOX resistant P388 cell line (P388 /DOX)", "format": "functional, cell-based", "details": "Mus musculus"}, "PC-14": {"test_system": "PC-14", "assay": "Growth inhibitory concentration of compound was measured against human lung carcinoma cell line (PC-14)", "format": "functional, cell-based"}, "KB": {"test_system": "KB", "assay": "Growth inhibitory concentration of compound was measured against human nasopharyngeal carcinoma cell line (KB)", "format": "functional, cell-based"}, "DNA topoisomerase II": {"biological_target": "DNA topoisomerase II (Homo sapiens, UniProt P11388+Q02880)", "assay": "The compound was tested for its inhibitory activity against topoisomerase II", "format": "protein assay"}},
  "data": [
    {"smiles": "CC1OC(Oc2c3c(c4cccnc4c2OC2OC(C)C(O)C(O)C2F)C(=O)c2ccccc2C3=O)C(F)C(O)C1O", "note": "(configuration not stated)", "values": [
      {"measurement": "IC50", "setting": "K562", "value": 5800, "unit": "nM"},
      {"measurement": "IC50", "setting": "Melanoma cell line", "value": 7500, "unit": "nM"},
      {"measurement": "IC50", "setting": "MKN-1", "value": "> 8500", "unit": "nM"},
      {"measurement": "IC50", "setting": "L1210", "value": "> 8500", "unit": "nM"},
      {"measurement": "IC50", "setting": "P388 [1]", "value": "> 8500", "unit": "nM"},
      {"measurement": "IC50", "setting": "T-24", "value": "> 8500", "unit": "nM"},
      {"measurement": "IC50", "setting": "P388 [2]", "value": "> 8500", "unit": "nM"},
      {"measurement": "IC50", "setting": "PC-14", "value": "> 8500", "unit": "nM"},
      {"measurement": "IC50", "setting": "KB", "value": "> 8500", "unit": "nM"}
    ]},
    {"smiles": "O=C1c2ccccc2C(=O)c2c1c(O)c(O)c1ncccc21", "values": [
      {"measurement": "IC50", "setting": "K562", "value": 7200, "unit": "nM"},
      {"measurement": "IC50", "setting": "Melanoma cell line", "value": 4100, "unit": "nM"},
      {"measurement": "IC50", "setting": "MKN-1", "value": 14000, "unit": "nM"},
      {"measurement": "IC50", "setting": "L1210", "value": 7200, "unit": "nM"},
      {"measurement": "IC50", "setting": "P388 [1]", "value": 6900, "unit": "nM"},
      {"measurement": "IC50", "setting": "T-24", "value": 14000, "unit": "nM"},
      {"measurement": "IC50", "setting": "P388 [2]", "value": 3300, "unit": "nM"},
      {"measurement": "IC50", "setting": "PC-14", "value": "> 17000", "unit": "nM"},
      {"measurement": "IC50", "setting": "KB", "value": 3000, "unit": "nM"}
    ]},
    {"smiles": "COc1cccc2c1C(=O)c1c(O)c3c(c(O)c1C2=O)C[C@@](O)(C(=O)CO)C[C@@H]3O[C@H]1C[C@H](N)[C@H](O)[C@H](C)O1", "note": "[DOXORUBICIN]", "values": [
      {"measurement": "IC50", "setting": "K562", "value": 120, "unit": "nM"},
      {"measurement": "IC50", "setting": "Melanoma cell line", "value": 280, "unit": "nM"},
      {"measurement": "IC50", "setting": "MKN-1", "value": 640, "unit": "nM"},
      {"measurement": "IC50", "setting": "L1210", "value": 50, "unit": "nM"},
      {"measurement": "IC50", "setting": "P388 [1]", "value": 20, "unit": "nM"},
      {"measurement": "IC50", "setting": "T-24", "value": 640, "unit": "nM"},
      {"measurement": "IC50", "setting": "P388 [2]", "value": "> 900", "unit": "nM"},
      {"measurement": "IC50", "setting": "PC-14", "value": 1900, "unit": "nM"},
      {"measurement": "IC50", "setting": "KB", "value": 220, "unit": "nM"}
    ]},
    {"smiles": "CC1OC(Oc2c(O)c3c(c4cccnc24)C(=O)c2ccccc2C3=O)C(F)C(O)C1O", "note": "(configuration not stated)", "values": [
      {"measurement": "IC50", "setting": "K562", "value": 710, "unit": "nM"},
      {"measurement": "IC50", "setting": "Melanoma cell line", "value": 590, "unit": "nM"},
      {"measurement": "IC50", "setting": "MKN-1", "value": 730, "unit": "nM"},
      {"measurement": "IC50", "setting": "L1210", "value": 320, "unit": "nM"},
      {"measurement": "IC50", "setting": "P388 [1]", "value": 770, "unit": "nM"},
      {"measurement": "IC50", "setting": "T-24", "value": 360, "unit": "nM"},
      {"measurement": "IC50", "setting": "P388 [2]", "value": 820, "unit": "nM"},
      {"measurement": "IC50", "setting": "PC-14", "value": 710, "unit": "nM"},
      {"measurement": "IC50", "setting": "DNA topoisomerase II", "value": 5000, "unit": "nM"},
      {"measurement": "IC50", "setting": "KB", "value": 270, "unit": "nM"}
    ]}
  ]
}
